EC50, inhibition and IC50 data for seven compounds are collected here from ChEMBL document CHEMBL1145110, “Oxidosqualene cyclase inhibitors as antimicrobial agents” (J Med Chem, 2003).

For experiment [1], the system named is Leishmania mexicana. The experiment can be described thus: Tested for inhibition of growth Leishmania mexicana in a pathogen cell culture assay. In kind it is functional. Particulars: read-out: ED50 (the source's name).
The next experiment has as its system NIH3T3. In words: Tested for inhibition of growth of NIH3T3 cells a in a pathogen cell culture assay. In kind it is functional. As to conditions: Mus musculus, read-out: ED50 (the source's name).
The subject of experiment [2] is Pneumocystis carinii. The experiment can be described thus: Tested for inhibition of growth Pneumocystis carinii in a pathogen cell culture assay, at a concentration of 10 uM. Type of experiment: functional.
Experiment [3] has as its system Trypanosoma cruzi. The experiment can be described thus: Tested for inhibition of growth Trypanosoma cruzi in a pathogen cell culture assay. In kind it is functional. As to conditions: read-out: ED50 (the source's name).
For experiment [4], the system named is Trypanosoma brucei. In words: Tested for inhibition of growth Trypanosoma brucei in a pathogen cell culture assay. Type of experiment: functional. Particulars: read-out: ED50 (the source's name).
The test system of experiment [5] is Toxoplasma gondii. In words: Tested for inhibition of growth Toxoplasma gondii in a pathogen cell culture assay, at a concentration of 10 uM. Type of experiment: functional.
For another experiment, the target named is T1, Lanosterol synthase (Rattus norvegicus, UniProt P48450).
T1 sequence (P48450 whole entry): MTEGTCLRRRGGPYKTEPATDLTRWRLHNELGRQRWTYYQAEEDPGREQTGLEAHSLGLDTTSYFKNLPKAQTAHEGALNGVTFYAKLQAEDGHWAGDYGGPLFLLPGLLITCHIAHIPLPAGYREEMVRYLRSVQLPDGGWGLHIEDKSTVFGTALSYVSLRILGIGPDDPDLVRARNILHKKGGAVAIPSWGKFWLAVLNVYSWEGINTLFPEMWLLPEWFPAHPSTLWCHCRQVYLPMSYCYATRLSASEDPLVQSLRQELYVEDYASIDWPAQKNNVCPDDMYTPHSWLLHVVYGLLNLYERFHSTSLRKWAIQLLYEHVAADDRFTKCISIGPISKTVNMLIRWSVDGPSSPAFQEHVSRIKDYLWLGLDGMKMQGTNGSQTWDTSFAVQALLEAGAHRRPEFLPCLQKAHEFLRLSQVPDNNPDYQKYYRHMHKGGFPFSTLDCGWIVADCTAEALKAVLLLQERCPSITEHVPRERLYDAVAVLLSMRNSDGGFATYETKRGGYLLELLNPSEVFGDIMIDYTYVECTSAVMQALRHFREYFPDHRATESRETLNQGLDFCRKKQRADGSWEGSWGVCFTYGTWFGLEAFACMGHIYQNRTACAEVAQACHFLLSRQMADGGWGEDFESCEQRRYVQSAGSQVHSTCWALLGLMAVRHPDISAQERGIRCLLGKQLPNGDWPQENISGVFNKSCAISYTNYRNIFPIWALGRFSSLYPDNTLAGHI
In words: Tested for Oxidosqualene-lanosterol cyclase inhibition in rat.

Experiment [6] deals with Leishmania mexicana. The experiment can be described thus: Tested for inhibition of growth of Leishmania mexicana in a pathogen cell culture assay. Type of experiment: functional. Particulars: read-out: ED50 (the source's name).
For experiment [7], the system named is Pneumocystis carinii. In words: Tested for inhibition of growth of Pneumocystis carinii in a pathogen cell culture assay, at a concentration of 10 uM. In kind it is functional.
Experiment [8] relates to Trypanosoma cruzi. The experiment can be described thus: Tested for inhibition of growth of Trypanosoma cruzi in a pathogen cell culture assay. Type of experiment: functional. Particulars: read-out: ED50 (the source's name).
Experiment [9] concerns Trypanosoma brucei. In words: Tested for inhibition of growth of Trypanosoma brucei in a pathogen cell culture assay. Type of experiment: functional. Particulars: read-out: ED50 (the source's name).
The subject of experiment [10] is Toxoplasma gondii. In words: Tested for inhibition of growth of Toxoplasma gondii in a pathogen cell culture assay, at a concentration of 10 uM. Type of experiment: functional.

Each structure is given as a SMILES string.

By inhibition is commonly meant the share of the control response that was lost under treatment. Usually IC50 stands for the concentration at which inhibition is half-maximal. `CN(C)CCCOc1ccc(-c2ccccc2)cc1`: the EC50 is 0.4 µM in the experiment with Leishmania mexicana [1], over 10 µM with NIH3T3, 1 µM with Trypanosoma cruzi [3] and over 10 µM in the experiment with Trypanosoma brucei [4]. The inhibition at 10 µM turned out to be 95% in the experiment on Pneumocystis carinii [2] and 17% in the experiment on Toxoplasma gondii [5]. In addition, the midpoint of inhibition against Lanosterol synthase, the IC50, lay at 2.5 µM.
On to `OCCN1CCN(CCOc2ccc(-c3ccccc3)cc2)CC1`, for which the EC50 with Leishmania mexicana [1] is 0.4 µM; in the experiment with NIH3T3, over 10 µM; in the experiment with Trypanosoma cruzi [3] it was 1 µM; in the experiment with Trypanosoma brucei [4] it was over 10 µM. The inhibition at 10 µM in the experiment on Pneumocystis carinii [2] stood at 95%; in the experiment with Toxoplasma gondii [5] it was 28%.
Turning to `CCN(CC)CCOc1ccc(-c2ccccc2)cc1`, the EC50 in the experiment on Leishmania mexicana [1] was 10 µM; in the experiment on NIH3T3, over 10 µM; in the experiment with Trypanosoma cruzi [3], over 10 µM; in the experiment with Trypanosoma brucei [4] it was over 10 µM. In addition, the inhibition at 10 µM was 95% in the experiment with Pneumocystis carinii [2] and under 1% in the experiment on Toxoplasma gondii [5].
At Lanosterol synthase, `C=CCN(C)CCCCCCOc1ccc(C(=O)c2ccc(Cl)cc2)c(F)c1` registered a half-maximal inhibitory concentration (IC50) of 0.049 µM.
For the compound `O=C(c1ccc(Cl)cc1)c1ccc(OCCN2CCN(CCO)CC2)cc1`, the EC50 in the experiment with Leishmania mexicana [1] was 0.4 µM; in the experiment with NIH3T3, over 10 µM; in the experiment with Trypanosoma cruzi [3], 1 µM; in the experiment with Trypanosoma brucei [4], over 10 µM. Moreover, the values for the inhibition at 10 µM in the experiment with Pneumocystis carinii [2] and in the experiment with Toxoplasma gondii [5] were 95% and 28%, respectively.
For `O=C(c1ccc(Cl)cc1)c1ccc(OC2CN3CCC2CC3)cc1` (centres undefined), the EC50 with Leishmania mexicana [6] is 0.4 µM; with NIH3T3 it was over 10 µM; in the experiment on Trypanosoma cruzi [8] it was 1 µM; in the experiment with Trypanosoma brucei [9], over 10 µM. Also, the inhibition at 10 µM with Pneumocystis carinii [7] worked out at 81%; with Toxoplasma gondii [10], 48%. The compound further displayed an IC50 on Lanosterol synthase of 0.16 µM.
As for `CN(C)CCCOc1ccc(C(=O)c2ccc(Cl)cc2)cc1`, the EC50 was 0.4 µM in the experiment with Leishmania mexicana [1], over 10 µM in the experiment with NIH3T3, 1 µM with Trypanosoma cruzi [3] and over 10 µM in the experiment on Trypanosoma brucei [4]. Further, the inhibition at 10 µM was 95% in the experiment on Pneumocystis carinii [2] and 17% in the experiment with Toxoplasma gondii [5].
